Like-named read-outs stand apart in the source and are kept apart here.
Target: T1, viral kinase pUL-97 (Human cytomegalovirus, UniProt P16788)
T1 construct: The pUL-97 gene was cloned into a baculovirus vector; GST (glutathione S-transferase) (N); made in house; host or cells: Sf9 insect cells, baculovirus
Assay: UL97 kinase assay on Immobilon plate
Assay type: biochemical
Conditions: inhibition of UL 97 kinase activity, read-out: Activity Class [A, B, C]
Experimental: UL97 Kinase-Assay on Immobilon Plate
The effect of pyrazine derivatives of this invention was tested on the activity of the viral kinase pUL-97. This kinase is derived from human cytomegalovirus (HCMV) (M. Marschall et al., Journal of General Virology, 2001, 82, 1439-1450). The pUL-97 gene was cloned into a baculovirus vector in order to produce GST (glutathione S-transferase) fusion protein. Insect cells (Sf9) were infected and GST-UL-97 purified via glutathione affinity columns according to standard procedures.
The pUL-97 kinase reaction was performed as described (M. Marschall et al., Journal of General Virology, 2001, 82, 1439-1450). Briefly, 10 μl Assay buffer (3 μM ATP, 60 μg/ml myelin basic protein (MBP) as substrate), 1.0 μCi γ-[^33P]ATP and 10 μl Basic buffer (20 mM Tris-HCl pH7.5, 0.5 mM MnCl2, 1 mM DTT (Dithiothreitol)) were given to the test tube before adding various concentrations of pyrazine derivatives. The reaction was started by adding 0.2 μl pUL-97 kinase, purified from infected Sf9-insect cells as described above. The total volume was adjusted with Basic buffer to a final volume of 30 μl. The reaction mix was incubated for 1 hr at 30° C. For negative control, 10 μl 0.1M EDTA (Ethylene Diamine tetraacetate) was added to reaction mix before addition of pUL-97 protein kinase. The reaction was stopped by addition of 10 μl 0.1 M EDTA.
Measuring Incorporation of Radioactivity:
The Immobilon plate (Millipore) was rinsed with 50 μl methanol/well. Following addition of 100 μl 0.1 M EDTA, 20 μl of each kinase reaction mix was added to one well of the Immobilon plate. Each well was washed 4× with 250 μl 0.75% phosphoric acid and 1× with 50 μl methanol. After addition of 50 μl scintillation cocktail (Roth, Germany) per well incorporation of radioactivity was measured using a Betareader (Wallac) and enzymatic activity calculated.

[1] = class by IC50 / % inhibition at 10 μM or 100 μM
[2] = class by IC50 / % inhibition at 10 or 100 μM

T1 sequence (P16788 whole entry): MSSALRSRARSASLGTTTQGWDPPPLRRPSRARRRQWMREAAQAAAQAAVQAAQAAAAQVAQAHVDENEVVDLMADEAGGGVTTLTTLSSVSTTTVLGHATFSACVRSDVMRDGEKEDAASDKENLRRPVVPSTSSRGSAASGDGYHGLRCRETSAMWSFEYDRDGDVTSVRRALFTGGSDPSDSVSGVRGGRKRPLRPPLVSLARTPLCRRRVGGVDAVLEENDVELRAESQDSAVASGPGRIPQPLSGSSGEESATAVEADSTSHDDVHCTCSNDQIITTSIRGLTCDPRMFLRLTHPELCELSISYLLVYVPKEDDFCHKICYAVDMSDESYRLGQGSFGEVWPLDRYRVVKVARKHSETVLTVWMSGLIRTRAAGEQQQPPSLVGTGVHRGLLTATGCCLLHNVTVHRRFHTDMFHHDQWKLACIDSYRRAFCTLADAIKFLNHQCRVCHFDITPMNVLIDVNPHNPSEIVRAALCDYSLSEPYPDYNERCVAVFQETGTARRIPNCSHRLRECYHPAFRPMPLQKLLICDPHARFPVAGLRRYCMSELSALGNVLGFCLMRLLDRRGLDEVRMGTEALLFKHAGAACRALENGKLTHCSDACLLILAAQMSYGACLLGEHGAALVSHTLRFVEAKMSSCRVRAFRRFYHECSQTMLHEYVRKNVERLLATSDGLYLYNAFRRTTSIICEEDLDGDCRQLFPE

SMILES	IC50 [1] [µM]	IC50 [2] [µM]
COc1cccc(N2CCN(c3cncc(-c4ccc(CO)cc4)n3)CC2)c1 [compound 323, {4-[4-(3-Methoxy-phenyl)-3,4,5,6-tetrahydro-2H-[1,2′]bipyrazinyl-6′-yl]-phenyl}-methanol]	1 to 10	–
CSc1ccc(-c2cncc(N3CCN(c4ccncc4)CC3)n2)cc1 [compound 66, 6′-(4-Methylsulfanyl-phenyl)-4-pyridin-4-yl-3,4,5,6-tetrahydro-2H-[1,2′]bipyrazinyl]	–	< 1
c1ccc2c(-c3cncc(N4CCN(c5cnccn5)CC4)n3)csc2c1 [compound 332, 6-Benzo[b]thiophen-3-yl-2′,3′,5′,6′-tetrahydro-[2,1′;4′,2″]terpyrazine]	< 1	–
Cc1ccc(-c2cncc(N3CCN(c4ccccc4)CC3)n2)cc1 [compound 245, 4-Phenyl-6′-p-tolyl-3,4,5,6-tetrahydro-2H-[1,2′]bipyrazinyl]	1 to 10	–
O=C(NCCO)c1cccc(-c2cncc(N3CCN(c4ccncc4)CC3)n2)c1 [compound 39, N-(2-Hydroxy-ethyl)-3-(4-pyridin-4-yl-3,4,5,6-tetrahydro-2H-[1,2′]bipyrazinyl-6′-yl)-benzamide]	–	10 to 100
Fc1ccc(N2CCN(c3cncc(-c4ccoc4)n3)CC2)cc1 [compound 270, 4-(4-Fluoro-phenyl)-6′-furan-3-yl-3,4,5,6-tetrahydro-2H-[1,2′]bipyrazinyl]	10 to 100	–
Cc1ccc(N2CCN(c3cncc(-c4csc5ccccc45)n3)CC2)cc1 [compound 231, 6′-Benzo[b]thiophen-3-yl-4-p-tolyl-3,4,5,6-tetrahydro-2H-[1,2′]bipyrazinyl]	10 to 100	–
COc1cccc(N2CCN(c3cncc(-c4ccc(F)cc4)n3)CC2)c1 [compound 367, 6′-(4-Fluoro-phenyl)-4-(3-methoxy-phenyl)-3,4,5,6-tetrahydro-2H-[1,2′]bipyrazinyl]	1 to 10	–
CCOc1ccc(-c2cncc(N3CCN(c4ccncc4)CC3)n2)cc1 [compound 260, 6′-(4-Ethoxy-phenyl)-4-pyridin-4-yl-3,4,5,6-tetrahydro-2H-[1,2′]bipyrazinyl]	1 to 10	–
COc1ccc(N2CCN(c3cncc(-c4cccc(C)c4)n3)CC2)cc1OC [compound 223, 4-(3,4-Dimethoxy-phenyl)-6′-m-tolyl-3,4,5,6-tetrahydro-2H-[1,2′]bipyrazinyl]	1 to 10	–
OCC1CCCN1c1cncc(-c2cc3ccccc3o2)n1 (stereo not drawn) [compound 24, [1-(6-Benzofuran-2-yl-pyrazin-2-yl)-pyrrolidin-2-yl]-methanol]	–	1 to 10
CSc1ccc(-c2cncc(N3CCN(c4ccc(F)cc4F)CC3)n2)cc1 [compound 274, 4-(2,4-Difluoro-phenyl)-6′-(4-methylsulfanyl-phenyl)-3,4,5,6-tetrahydro-2H-[1,2′]bipyrazinyl]	1 to 10	–
CCOc1ccccc1-c1cncc(N2CCN(c3ccc(C(C)=O)cc3)CC2)n1 [compound 212, 1-{4-[6′-(2-Ethoxy-phenyl)-2,3,5,6-tetrahydro-[1,2′]bipyrazinyl-4-yl]-phenyl}-ethanone]	10 to 100	–
Cc1cccc(-c2cncc(N3CCN(c4ccccc4)CC3)n2)c1 [compound 244, 4-Phenyl-6′-m-tolyl-3,4,5,6-tetrahydro-2H-[1,2′]bipyrazinyl]	10 to 100	–
CCOc1ccc(-c2cncc(N3CCN(c4ccc(C)cc4)CC3)n2)cc1 [compound 266, 6′-(4-Ethoxy-phenyl)-4-p-tolyl-3,4,5,6-tetrahydro-2H-[1,2′]bipyrazinyl]	10 to 100	–
COc1ccc(N2CCN(c3cncc(-c4csc5ccccc45)n3)CC2)cc1 [compound 283, 6′-Benzo[b]thiophen-3-yl-4-(4-methoxy-phenyl)-3,4,5,6-tetrahydro-2H-[1,2′]bipyrazinyl]	1 to 10	–
Cc1ccc(-c2cncc(N3CCN(c4ccc(C)cc4)CC3)n2)cc1 [compound 229, 4,6′-Di-p-tolyl-3,4,5,6-tetrahydro-2H-[1,2′]bipyrazinyl]	10 to 100	–
Cc1ccc(N2CCN(c3cncc(-c4cccc5ccccc45)n3)CC2)cc1 [compound 230, 6′-Naphthalen-1-yl-4-p-tolyl-3,4,5,6-tetrahydro-2H-[1,2′]bipyrazinyl]	10 to 100	–

From US20080194574A1, “Pyrazine Derivatives As Effective Compounds Against Infectious Diseases” (AXXIMA PHARMACEUTICALS AG, priority 2003, published 2008)
